Literature values, collected in patent publication US20180080913A1, “SCREENING METHOD FOR MULTI-TARGET DRUGS AND/OR DRUG COMBINATIONS” (Wuhan Bio-links Technology Co., Ltd, priority 2015, published 2018).

Test system: human gastric barcinoma cell line MGC803
Conditions: combination of d-limonene and berberine, active ingredients of Zuo Gui Wan

Row | Compound | promotion of gastric cancer cell apoptosis
1 | COc1ccc2cc3[n+](cc2c1OC)CCc1cc2c(cc1-3)OCO2 [berberine] | synergistically promote gastric cancer cell apoptosis
2 | C=C(C)[C@H]1CC=C(C)CC1 [d-limonene] | synergistically promote gastric cancer cell apoptosis
